Assay results taken from patent US8530473B2, “Tetrahydroquinoxaline urea derivatives as modulators of 11β-hydroxysteroid dehydrogenase type 1” (Sanofi, priority 2009, dated 2013).
Structures can show the parent of a compound that is named as a salt.

Experiments:
11βHSD1 = molecular target: T1, 11βHSD1 (Homo sapiens, UniProt P28845); assay: 11βHSD1 Scintillation Proximity Assay (SPA), 384-well format; format: biochemical; details: recombinant 11βHSD1 produced in S. cerevisiae; 3H-cortisone and NADPH; cortisol formed measured by SPA
T1 construct: made in house; host or cells: S. cerevisiae yeast
Method: The compounds according to the invention have undergone pharmacological tests for determining their inhibitory effect on the enzyme 11βHSD1, which is involved in lipid metabolism and in glucose metabolism.
These tests consisted of measuring the inhibitory activity in vitro of compounds of the invention on the enzyme 11βHSD1 using a Scintillation Proximity Assay (SPA) in 384-well format. The recombinant 1βHSD1 protein was produced in S. cerevisiae yeast. The reaction was carried out by incubating the enzyme in the presence of ^3H-cortisone and NADPH, in the absence or in the presence of increasing concentration of inhibitor. SPA beads coupled to an antimouse antibody, preincubated with an anticortisol antibody, made it possible to measure the amount of cortisol formed during the reaction.
The inhibitory activity with respect to the enzyme 11βHSD1 is given by the concentration that inhibits 50% of the activity of 11βHSD1 (IC50).

healthy volunteers = details: after seven days of treatment, healthy volunteers (Rauz et al. 2001); cited from earlier work

T1 sequence (P28845 whole entry): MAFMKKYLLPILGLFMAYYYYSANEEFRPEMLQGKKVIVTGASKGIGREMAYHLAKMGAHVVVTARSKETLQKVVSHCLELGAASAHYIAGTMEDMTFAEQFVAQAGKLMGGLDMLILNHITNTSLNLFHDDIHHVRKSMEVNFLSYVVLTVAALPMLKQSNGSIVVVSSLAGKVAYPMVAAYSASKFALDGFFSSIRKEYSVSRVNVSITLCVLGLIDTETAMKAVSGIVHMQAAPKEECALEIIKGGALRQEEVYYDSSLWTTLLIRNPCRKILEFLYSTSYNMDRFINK

Compound: NC(=O)[C@]12CC3CC(C1)[C@H](NC(=O)N1CCN(c4ccc(N5CCC(N6CC[C@@H](O)C6)CC5)cn4)c4ccccc41)C(C3)C2 (as salt: HCl) [Compound 9, Trans 4-[4-((R)-3-hydroxy-pyrrolidin-1-yl)-3,4,5,6,-tetrahydro-2H-[1,3′]bipyridinyl-6′-yl]-3,4-dihydro-2H-quinoxaline-1-carboxylic acid (5-carbamoyl-adamantan-2-yl)-amide]
- melting point: 191 °C

Compound: NC(=O)C12CC3CC(C1)C(NC(=O)N1CCN(c4ccc(N5CCC(N6CCC(F)(F)C6)CC5)cn4)c4ccccc41)C(C3)C2 (stereo not drawn) (as salt: HCl) [Compound 10, Trans 4-[4-(3,3-difluoro-pyrrolidin-1-yl)-3,4,5,6-tetrahydro-2H-[1,3′]bipyridinyl-6′-yl]-3,4-dihydro-2H-quinoxaline-1-carboxylic acid (5-carbamoyl-adamantan-2-yl)-amide]
- melting point: 196 °C

Compound: NC(=O)C12CC3CC(C1)C(NC(=O)N1CCN(c4ccc(N5CCC(N6CCC[C@@H]6CO)CC5)cn4)c4ccccc41)C(C3)C2 (stereo in doubt) [Compound 6, Trans 4-[4-((R)-2-hydroxymethyl-pyrrolidin-1-yl)-3,4,5,6-tetrahydro-2H-[1,3′]bipyridinyl-6′-yl]-3,4-dihydro-2H-quinoxaline-1-carboxylic acid (5-carbamoyl-adamantan-2-yl)-amide]
- IC50 (11βHSD1): 4 nM

Compound: NC(=O)C12CC3CC(C1)C(NC(=O)N1CCN(c4ccc(N5CCC(N6CCC[C@H]6CO)CC5)cn4)c4ccccc41)C(C3)C2 (stereo in doubt) [Compound 7, Trans 4-[4-((S)-2-hydroxymethyl-pyrrolidin-1-yl)-3,4,5,6-tetrahydro-2H-[1,3′]bipyridinyl-6′-yl]-3,4-dihydro-2H-quinoxaline-1-carboxylic acid (5-carbamoyl-adamantan-2-yl)-amide]
- IC50 (11βHSD1): 3 nM

Compound: NC(=O)C12CC3CC(C1)C(NC(=O)N1CCN(c4ccc(N5CCC(N6CC[C@H](O)C6)CC5)cn4)c4ccccc41)C(C3)C2 (stereo in doubt) [Compound 8, Trans 4-[4-((S)-3-hydroxy-pyrrolidin-1-yl)-3,4,5,6-tetrahydro-2H-[1,3′]bipyridinyl-6′-yl]-3,4-dihydro-2H-quinoxaline-1-carboxylic acid (5-carbamoyl-adamantan-2-yl)-amide]
- IC50 (11βHSD1): 6 nM

Compound: C[Si](C)(C)CN1CCN(c2ccc(N3CCN(C(=O)NC4C5CC6CC4CC(O)(C6)C5)c4ccccc43)nc2)CC1 (stereo not drawn) [Compound 1, Trans 4-[5-(4-trimethylsilanylmethyl-piperazin-1-yl)-pyridin-2-yl]-3,4-dihydro-2H-quinoxaline-1-carboxylic acid (5-hydroxy-adamantan-2-yl)-amide]
- IC50 (11βHSD1): 7 nM

Compound: CC(C)(C)ON=C1CCN(c2ccc(N3CCN(C(=O)N[C@H]4C5CC6CC4C[C@@](O)(C6)C5)c4ccccc43)nc2)CC1 [Compound 2, Trans 4-(4-tert-butoxyimino-3,4,5,6-tetrahydro-2H-[1,3′]bipyridinyl-6′-yl)-3,4-dihydro-2H-quinoxaline-1-carboxylic acid (5-hydroxy-adamantan-2-yl)-amide]
- IC50 (11βHSD1): 23 nM
- melting point: 110 to 113 °C

Compound: C[Si](C)(C)CCS(=O)(=O)N1CCN(c2ccc(N3CCN(C(=O)NC4C5CC6CC4CC(O)(C6)C5)c4ccccc43)nc2)CC1 (stereo not drawn) [Compound 3, Trans 4-{5-[4-(2-trimethylsilanyl-ethanesulfonyl)-piperazin-1-yl]-pyridin-2-yl}-3,4-dihydro-2H-quinoxaline-1-carboxylic acid (5-hydroxy-adamantan-2-yl)-amide]
- IC50 (11βHSD1): 10 nM
- melting point: 107 to 120 °C

Compound: NC(=O)[C@]12CC3CC(C1)[C@H](NC(=O)N1CCN(c4ccc(N5CCN(CC6CC6(F)F)CC5)cn4)c4ccccc41)C(C3)C2 (stereo partly drawn) [Compound 4, Trans 4-{5-[4-(2,2-difluoro-cyclopropylmethyl)-piperazin-1-yl]-pyridin-2-yl}-3,4-dihydro-2H-quinoxaline-1-carboxylic acid (5-carbamoyl-adamantan-2-yl)-amide]
- IC50 (11βHSD1): 3 nM
- melting point: 206 °C

Compound: NC(=O)[C@]12CC3CC(C1)[C@H](NC(=O)N1CCN(c4ccc(N5CCC(N6CCS(=O)(=O)CC6)CC5)cn4)c4ccccc41)C(C3)C2 [Compound 5, Trans 4-[4-(1,1-dioxo-1lambda6-thiomorpholin-4-yl)-3,4,5,6-tetrahydro-2H-[1,3′]bipyridinyl-6′-yl]-3,4-dihydro-2H-quinoxaline-1-carboxylic acid (5-carbamoyl-adamantan-2-yl)-amide]
- IC50 (11βHSD1): 4 nM
- melting point: 160 to 200 °C

Compound: NC(=O)[C@]12CC3CC(C1)[C@H](NC(=O)N1CCN(c4ccc(N5CCC(N6CC[C@@H](O)C6)CC5)cn4)c4ccccc41)C(C3)C2 [Compound 9, Trans 4-[4-((R)-3-hydroxy-pyrrolidin-1-yl)-3,4,5,6,-tetrahydro-2H-[1,3′]bipyridinyl-6′-yl]-3,4-dihydro-2H-quinoxaline-1-carboxylic acid (5-carbamoyl-adamantan-2-yl)-amide]
- IC50 (11βHSD1): 2 nM

Compound: NC(=O)C12CC3CC(C1)C(NC(=O)N1CCN(c4ccc(N5CCC(N6CCC(F)(F)C6)CC5)cn4)c4ccccc41)C(C3)C2 (stereo not drawn) [Compound 10, Trans 4-[4-(3,3-difluoro-pyrrolidin-1-yl)-3,4,5,6-tetrahydro-2H-[1,3′]bipyridinyl-6′-yl]-3,4-dihydro-2H-quinoxaline-1-carboxylic acid (5-carbamoyl-adamantan-2-yl)-amide]
- IC50 (11βHSD1): 2 nM

Compound: Cl.NC(=O)[C@]12CC3CC(C1)[C@H](NC(=O)N1CCN(c4ccc(N5CCC6(CC5)CC6(F)F)cn4)c4ccccc41)C(C3)C2 [Compound 11, Trans 4-[5-(1,1-difluoro-6-aza-spiro[2.5]oct-6-yl)-pyridin-2-yl]-3,4-dihydro-2H-quinoxaline-1-carboxylic acid (5-carbamoyl-adamantan-2-yl)-amide]
- IC50 (11βHSD1): 3 nM
- melting point: 134 to 170 °C

Compound: NC(=O)[C@]12CC3CC(C1)[C@H](NC(=O)N1CCN(c4ccc(N5CCC6(CC5)CC6C(=O)O)cn4)c4ccccc41)C(C3)C2 (stereo partly drawn) [Compound 12, trans-6-{6-[4-(5-Carbamoyl-adamantan-2-ylcarbamoyl)-3,4-dihydro-2H-quinoxalin-1-yl]-pyridin-3-yl}-6-aza-spiro[2.5]octane-1-carboxylic acid]
- IC50 (11βHSD1): 6 nM
- melting point: 145 to 160 °C

Compound: C[Si]1(c2ccccc2)CCN(c2ccc(N3CCN(C(=O)N[C@H]4C5CC6CC4C[C@@](C(N)=O)(C6)C5)c4ccccc43)nc2)CC1 [Compound 13, Trans 4-[5-(4-methyl-4-phenyl-[1,4]azasilinan-1-yl)-pyridin-2-yl]-3,4-dihydro-2H-quinoxaline-1-carboxylic acid (5-carbamoyl-adamantan-2-yl)-amide]
- IC50 (11βHSD1): 25 nM
- melting point: 106 to 108 °C

Compound: C[Si]1(C)CCN(c2ccc(N3CCN(C(=O)NC4C5CC6CC4CC(C(N)=O)(C6)C5)c4ccccc43)nc2)CC1 (stereo not drawn) [Compound 14, Trans 4-[5-(4,4-dimethyl-[1,4]azasilinan-1-yl)-pyridin-2-yl]-3,4-dihydro-2H-quinoxaline-1-carboxylic acid (5-carbamoyl-adamantan-2-yl)-amide]
- IC50 (11βHSD1): 12 nM
- melting point: 213 to 216 °C

Compound: CC1(C)[C@@H](OC(=O)CCC(=O)O)CC[C@]2(C)[C@H]3C(=O)C=C4[C@@H]5C[C@@](C)(C(=O)O)CC[C@]5(C)CC[C@@]4(C)[C@]3(C)CC[C@@H]12 [carbenoxolone]
- IOP is reduced by (healthy volunteers): 18%
